Converted amounts (≈) assume the structure as drawn.

From patent publication US20240270762A1, “PENICILLIN-BINDING PROTEIN INHIBITORS” (priority 2021, published 2024) come the findings set out here.

In assay [1] the test system is A. baumannii CDC-0033. The assay can be described thus: microbe, parasite or virus in culture. The format is cell-based. The following applies: Acinetobacter baumannii, CDC0033, read-out: MIC, A. baumannii CDC-0033.
Assay [2] has as its system N. gonorrhoeae WHO K. Description: Liquid broth MIC in Fastidious broth. The following applies: Neisseria gonorrhoeae, read-out: Minimum Inhibitory Concentration (MIC), N. gonorrhoeae WHO K.
For assay [3], the system named is A. baumannii ATCC 17978. Description: microbe, parasite or virus in culture. The format is cell-based. The following applies: Acinetobacter baumannii, ATCC17978, read-out: MIC, A. baumannii ATCC 17978.
Assay [4] deals with T1, PBP3 from Acinetobacter baumannii (ATCC 19606) (Acinetobacter baumannii, UniProt A0ABX6CK25).
T1 sequence (A0ABX6CK25 64-610): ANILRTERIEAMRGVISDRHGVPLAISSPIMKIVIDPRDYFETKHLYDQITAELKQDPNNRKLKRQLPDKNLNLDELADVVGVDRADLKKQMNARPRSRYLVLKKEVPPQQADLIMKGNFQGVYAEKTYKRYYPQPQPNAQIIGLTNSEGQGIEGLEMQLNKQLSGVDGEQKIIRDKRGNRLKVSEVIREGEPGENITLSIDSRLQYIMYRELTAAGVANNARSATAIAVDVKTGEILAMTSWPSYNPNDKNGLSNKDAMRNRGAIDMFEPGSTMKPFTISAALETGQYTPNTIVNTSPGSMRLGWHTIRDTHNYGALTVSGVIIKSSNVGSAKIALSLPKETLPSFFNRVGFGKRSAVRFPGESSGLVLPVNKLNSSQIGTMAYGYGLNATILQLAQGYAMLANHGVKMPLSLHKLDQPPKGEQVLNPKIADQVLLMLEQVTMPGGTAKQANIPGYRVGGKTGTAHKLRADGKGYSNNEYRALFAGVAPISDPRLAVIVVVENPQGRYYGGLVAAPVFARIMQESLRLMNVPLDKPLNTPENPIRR
Description: Bocillin-FL fluorescence polarization competition binding, A. baumannii PBP3. The following applies: fluorescence polarization competition binding assay using Bocillin-FL; read-out: A. baumannii PBP3 Potency. The gist of the method: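 Purified PBPs pre-incubated with inhibitor (E. coli PBP3 1.5 μM, 30 min; P. aeruginosa PBP3 0.75 μM, A. baumannii PBP1a 1 μM and PBP3 0.2 μM, 15 min), then Bocillin-FL 0.1 μM (0.05 μM for PBP1a) added; FP read up to 60 min. EC50 = concentration halving bound Bocillin-FL.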

Assay [5] deals with P. aeruginosa CDC-0090. Description: microbe, parasite or virus in culture. The format is cell-based. The following applies: Pseudomonas aeruginosa, CDC0090, read-out: Minimum inhibitory concentration, P. aeruginosa CDC-0090.
The subject of assay [6] is N. gonorrhoeae WHO M. Description: Liquid broth MIC in Fastidious broth. The settings on record: Neisseria gonorrhoeae, read-out: Minimum Inhibitory Concentration (MIC), N. gonorrhoeae WHO M.
Assay [7] has as its system P. aeruginosa CDC-0110. The assay can be described thus: microbe, parasite or virus in culture. The format is cell-based. The settings on record: Pseudomonas aeruginosa, CDC0110, read-out: Minimum inhibitory concentration, P. aeruginosa CDC-0110.
Assay [8] relates to N. gonorrhoeae WHO X. The assay can be described thus: Liquid broth MIC in Fastidious broth. The settings on record: Neisseria gonorrhoeae, read-out: Minimum Inhibitory Concentration (MIC), N. gonorrhoeae WHO X.
Assay [9] concerns A. baumannii CDC-0083. Description: microbe, parasite or virus in culture. The format is cell-based. The settings on record: Acinetobacter baumannii, CDC0083, read-out: MIC, A. baumannii CDC-0083.
Assay [10] deals with P. aeruginosa CDC-0095. The assay can be described thus: microbe, parasite or virus in culture. Format: cell-based. The settings on record: Pseudomonas aeruginosa, CDC0095, read-out: Minimum inhibitory concentration, P. aeruginosa CDC-0095.
For assay [11], the system named is A. baumannii 1258916. Description: microbe, parasite or virus in culture. The format is cell-based, Acinetobacter baumannii. The following applies: Acinetobacter baumannii, 1258916, read-out: MIC, A. baumannii 1258916.

As to `O=C(NCCN1CCN(C(=O)NC(C(=O)N[C@H]2Cc3ccc(F)c(C(=O)O)c3OB2O)c2cc(F)c(O)c(O)c2Cl)C(=O)C1=O)c1ccc(O)cc1` (stereo partly drawn) [Example 214, (3R)-3-(2-(2-chloro-5-fluoro-3,4-dihydroxyphenyl)-2-(4-(2-(4-hydroxybenzamido)ethyl)-2,3-dioxopiperazine-1-carboxamido)acetamido)-7-fluoro-2-hydroxy-3,4-dihydro-2H-benzo[e][1,2]oxaborinine-8-carboxylic acid], the MIC in assay [1] is 8 to 16 µg/mL (≈ 10.7 to 21.5 µM); in [2], > 64 µg/mL; in [3] it was < 1 µg/mL; in [5], < 1 µg/mL; in [6] it was 4 to 8 µg/mL (≈ 5.36 to 10.7 µM); in [7] it was < 1 µg/mL. For the same compound, the MIC in assay [8] was > 64 µg/mL; in assay [9], > 128 µg/mL; in assay [10] it was 2 to 4 µg/mL (≈ 2.68 to 5.36 µM); in assay [11] it was 2 to 4 µg/mL (≈ 2.68 to 5.36 µM). Moreover, in assay [4], the IC50 is < 10 µM.
In the case of `O=C(NCCN1CCN(C(=O)NC(C(=O)N[C@H]2Cc3ccc(F)c(C(=O)O)c3OB2O)c2cc(F)c(O)c(O)c2Cl)C(=O)C1=O)c1cccc(O)c1` (stereo partly drawn) [Example 215, (3R)-3-(2-(2-chloro-5-fluoro-3,4-dihydroxyphenyl)-2-(4-(2-(3-hydroxybenzamido)ethyl)-2,3-dioxopiperazine-1-carboxamido)acetamido)-7-fluoro-2-hydroxy-3,4-dihydro-2H-benzo[e][1,2]oxaborinine-8-carboxylic acid], the MIC is 8 to 16 µg/mL (≈ 10.7 to 21.5 µM) in assay [1]; > 64 µg/mL in [2]; < 1 µg/mL in assay [3]; < 1 µg/mL in assay [5]; 4 to 8 µg/mL (≈ 5.36 to 10.7 µM) in assay [6]; < 1 µg/mL in assay [7]. Besides, the MIC was > 64 µg/mL in assay [8], > 128 µg/mL in assay [9], 2 to 4 µg/mL (≈ 2.68 to 5.36 µM) in [10] and 2 to 4 µg/mL (≈ 2.68 to 5.36 µM) in assay [11]. For the same compound, the IC50 in [4] was < 10 µM.
As for `O=C(NCCN1CCN(C(=O)NC(C(=O)N[C@H]2Cc3ccc(F)c(C(=O)O)c3OB2O)c2cc(F)c(O)c(O)c2Cl)C(=O)C1=O)c1ccncc1` (stereo partly drawn) [Example 216, (3R)-3-(2-(2-chloro-5-fluoro-3,4-dihydroxyphenyl)-2-(4-(2-(isonicotinamido)ethyl)-2,3-dioxopiperazine-1-carboxamido)acetamido)-7-fluoro-2-hydroxy-3,4-dihydro-2H-benzo[e][1,2]oxaborinine-8-carboxylic acid], the MIC in assay [1] is 8 to 16 µg/mL (≈ 10.9 to 21.9 µM); in [2], > 64 µg/mL; in assay [3] it was < 1 µg/mL; in assay [5] it was < 1 µg/mL; in [6], 4 to 8 µg/mL (≈ 5.47 to 10.9 µM); in assay [7], < 1 µg/mL. Also, the MIC was > 64 µg/mL in assay [8], > 128 µg/mL in assay [9], 8 to 16 µg/mL (≈ 10.9 to 21.9 µM) in assay [10] and 2 to 4 µg/mL (≈ 2.74 to 5.47 µM) in [11]. In assay [4], the IC50 is < 10 µM.
For the compound `O=C(NCCN1CCN(C(=O)NC(C(=O)N[C@H]2Cc3ccc(F)c(C(=O)O)c3OB2O)c2cc(F)c(O)c(O)c2Cl)C(=O)C1=O)c1cccnc1` (stereo partly drawn) [Example 217, (3R)-3-(2-(2-chloro-5-fluoro-3,4-dihydroxyphenyl)-2-(4-(2-(nicotinamido)ethyl)-2,3-dioxopiperazine-1-carboxamido)acetamido)-7-fluoro-2-hydroxy-3,4-dihydro-2H-benzo[e][1,2]oxaborinine-8-carboxylic acid], the MIC in assay [1] is 8 to 16 µg/mL (≈ 10.9 to 21.9 µM); in assay [2], > 64 µg/mL; in assay [3] it was < 1 µg/mL; in [5], 2 to 4 µg/mL (≈ 2.74 to 5.47 µM); in [6], 16 to 32 µg/mL (≈ 21.9 to 43.8 µM); in assay [7] it was < 1 µg/mL. Besides, the MIC in [8] was > 64 µg/mL; in assay [9] it was > 128 µg/mL; in [10] it was 2 to 4 µg/mL (≈ 2.74 to 5.47 µM); in [11] it was 2 to 4 µg/mL (≈ 2.74 to 5.47 µM). The IC50 in assay [4] was < 10 µM.
On to `O=C(NCCN1CCN(C(=O)NC(C(=O)N[C@H]2Cc3ccc(F)c(C(=O)O)c3OB2O)c2cc(F)c(O)c(O)c2Cl)C(=O)C1=O)c1nccs1` (stereo partly drawn) [Example 218, (3R)-3-(2-(2-chloro-5-fluoro-3,4-dihydroxyphenyl)-2-(2,3-dioxo-4-(2-(thiazole-2-carboxamido)ethyl)piperazine-1-carboxamido)acetamido)-7-fluoro-2-hydroxy-3,4-dihydro-2H-benzo[e][1,2]oxaborinine-8-carboxylic acid], for which the MIC in [1] is 8 to 16 µg/mL (≈ 10.9 to 21.7 µM); in assay [2] it was > 64 µg/mL; in assay [3], < 1 µg/mL; in assay [5], < 1 µg/mL; in assay [6], 16 to 32 µg/mL (≈ 21.7 to 43.4 µM); in assay [7], 2 to 4 µg/mL (≈ 2.71 to 5.43 µM). The MIC in assay [8] is > 64 µg/mL; in assay [9], 8 to 16 µg/mL (≈ 10.9 to 21.7 µM); in assay [10], 8 to 16 µg/mL (≈ 10.9 to 21.7 µM); in assay [11], 2 to 4 µg/mL (≈ 2.71 to 5.43 µM). The IC50 in assay [4] was < 10 µM.
`O=C(NCCN1CCN(C(=O)NC(C(=O)N[C@H]2Cc3ccc(F)c(C(=O)O)c3OB2O)c2cc(F)c(O)c(O)c2Cl)C(=O)C1=O)Nc1ccc(O)cc1` (stereo partly drawn) [Example 219, (3R)-3-(2-(2-chloro-5-fluoro-3,4-dihydroxyphenyl)-2-(4-(2-(3-(4-hydroxyphenyl)ureido)ethyl)-2,3-dioxopiperazine-1-carboxamido)acetamido)-7-fluoro-2-hydroxy-3,4-dihydro-2H-benzo[e][1,2]oxaborinine-8-carboxylic acid]: the MIC in assay [1] was 8 to 16 µg/mL (≈ 10.5 to 21 µM); in assay [2], > 64 µg/mL; in assay [3], < 1 µg/mL; in assay [5], < 1 µg/mL; in assay [6], 4 to 8 µg/mL (≈ 5.26 to 10.5 µM); in assay [7], < 1 µg/mL. The MIC in assay [8] is > 64 µg/mL; in [9], 8 to 16 µg/mL (≈ 10.5 to 21 µM); in assay [10], 8 to 16 µg/mL (≈ 10.5 to 21 µM); in [11], 2 to 4 µg/mL (≈ 2.63 to 5.26 µM). Moreover, the IC50 in assay [4] was < 10 µM.
Consider `O=C(NCCN1CCN(C(=O)NC(C(=O)N[C@H]2Cc3ccc(F)c(C(=O)O)c3OB2O)c2cc(F)c(O)c(O)c2Cl)C(=O)C1=O)Nc1cccc(O)c1` (stereo partly drawn) [Example 220, (3R)-3-(2-(2-chloro-5-fluoro-3,4-dihydroxyphenyl)-2-(4-(2-(3-(3-hydroxyphenyl)ureido)ethyl)-2,3-dioxopiperazine-1-carboxamido)acetamido)-7-fluoro-2-hydroxy-3,4-dihydro-2H-benzo[e][1,2]oxaborinine-8-carboxylic acid], for which the MIC in assay [1] is 2 to 4 µg/mL (≈ 2.63 to 5.26 µM); in assay [2] it was > 64 µg/mL; in [3], < 1 µg/mL; in assay [5], < 1 µg/mL; in assay [6], 4 to 8 µg/mL (≈ 5.26 to 10.5 µM); in assay [7] it was < 1 µg/mL. For the same compound, the MIC is > 64 µg/mL in [8], 8 to 16 µg/mL (≈ 10.5 to 21 µM) in assay [9], 8 to 16 µg/mL (≈ 10.5 to 21 µM) in [10] and 2 to 4 µg/mL (≈ 2.63 to 5.26 µM) in assay [11]. For the same compound, in assay [4], the IC50 was < 10 µM.
`O=C(NCCN1CCN(C(=O)N[C@@H](C(=O)N[C@H]2Cc3ccc(F)c(C(=O)O)c3OB2O)c2cc(F)c(O)c(O)c2Cl)C(=O)C1=O)Nc1ccncc1` [Example 221, (R)-3-((R)-2-(2-chloro-5-fluoro-3,4-dihydroxyphenyl)-2-(2,3-dioxo-4-(2-(3-(pyridin-4-yl)ureido)ethyl)piperazine-1-carboxamido)acetamido)-7-fluoro-2-hydroxy-3,4-dihydro-2H-benzo[e][1,2]oxaborinine-8-carboxylic acid]: the MIC in assay [1] was 2 to 4 µg/mL (≈ 2.68 to 5.36 µM); in [2] it was > 64 µg/mL; in assay [3], < 1 µg/mL; in [5] it was < 1 µg/mL; in assay [6] it was 4 to 8 µg/mL (≈ 5.36 to 10.7 µM); in assay [7], < 1 µg/mL. The MIC in assay [8] was > 64 µg/mL; in [9], 32 to 64 µg/mL (≈ 42.9 to 85.8 µM); in assay [10] it was 8 to 16 µg/mL (≈ 10.7 to 21.5 µM); in [11], 2 to 4 µg/mL (≈ 2.68 to 5.36 µM). Further, in [4], the IC50 was < 10 µM.
